Experimental data from patent US20080058399A1, “Pharmaceutical Compositions” (ASTRAZENECA AB, priority 2006, published 2008).
Read-outs that look alike come from different tables or passages of the source.

Key:
[1] = Bioavailability in rats after per-oral administration; conditions: rat, in vivo, read-out: Relative bioavailability
[2] = Dissolution study, USP dissolution apparatus II; format: physicochemical; conditions: 500 ml 0.2% polysorbate 20 in 0.05 M phosphate buffer pH 6.5, paddle 75 rpm; 8 mg c.c. added except tablets as footnoted
Protocol: The medium used for dissolution studies was 500 ml of 0.2% polysorbate 20 in 0.05 M phosphate buffer pH 6.5 with a paddle speed of 75 rpm (USP dissolution apparatus II). In all dissolution tests, 8 mg of candesartan cilexetil was added to the medium (except where other is stated). After extraction with 60% (v/v) acetonitrile in water (filter pore size 0.45 μm), the amount of candesartan cilexetil was determined by liquid chromatography and UV-detection at 254 nm.

[3] = cited from earlier work

CCOc1nc2cccc(C(=O)OC(C)OC(=O)OC3CCCCC3)c2n1Cc1ccc(-c2ccccc2-c2nnn[nH]2)cc1 (stereo not shown) [c.c., candesartan cilexetil]
bioavailability ([1]; given as a suspension): 19% | bioavailability ([1]; given in solution): 50% | Drug dissolved after 5 minutes [2]: 24 | Drug dissolved after 10 minutes [2]: 43 | Drug dissolved after 15 minutes [2]: 54 | Drug dissolved after 20 minutes [2]: 61 | Solubility in water [3]: < 0.05 µg/mL
